# Values quoted from earlier work, collected in Sander's compilation of Henry's law constants (doi:10.1039/p29940001777).
# Assay: Henry solubility constant Hcp at 298.15 K (mol/(m3 Pa))
# Details: reference: Abraham et al. (1994a); cited value
row,Henry solubility constant Hcp,SMILES
1,460,CC(=O)c1cccnc1 [3-acetylpyridine]
2,8.6,CCCc1ccc(O)cc1 [1-hydroxy-4-propylbenzene]
3,6.4,c1ccc2ncccc2c1 [benzo[b]pyridine]
4,170,COc1cccc(O)c1 [1-hydroxy-3-methoxybenzene]
5,0.19,CCOC(=O)c1ccccc1 [ethyl benzoate]
6,90,COc1cccc(N)c1 [3-methoxy-benzenamine]
7,8.8,"Cc1ccc(C)c(O)c1 [1-hydroxy-2,5-dimethylbenzene]"
8,13,CCc1ccc(O)cc1 [1-hydroxy-4-ethylbenzene]
9,0.5,N#Cc1ccccc1 [benzenenitrile]
10,16,CCc1cccc(O)c1 [1-hydroxy-3-ethylbenzene]
11,39,OCCc1ccccc1 [2-phenylethanol]
12,5,COc1ccccc1O [1-hydroxy-2-methoxybenzene]
13,0.31,COC(=O)c1ccccc1 [methyl benzoate]
14,1.1,CC(=O)c1ccc(C)cc1 [4'-methylacetophenone]
15,56,O=Cc1ccncc1 [4-formylpyridine]
16,13,"Cc1cccc(O)c1C [1-hydroxy-2,3-dimethylbenzene]"
17,29,OCc1ccccc1 [(hydroxymethyl)-benzene]
18,33,CCOCCO [2-ethoxyethanol]
19,3.1,Oc1ccccc1F [2-hydroxyfluorobenzene]
20,47000,NC(=O)c1ccccc1 [benzamide]
21,48,OCCCc1ccccc1 [3-phenyl-1-propanol]
22,0.24,CN1CCCCC1 [N-methylpiperidine]
23,65,O=Cc1cccnc1 [3-formylpyridine]
24,16,"Cc1cc(C)cc(O)c1 [1-hydroxy-3,5-dimethylbenzene]"
25,160,CC(=O)c1ccncc1 [4-acetylpyridine]

row,SMILES,Henry solubility constant Hcp
1,"Cc1ccc(O)c(C)c1 [1-hydroxy-2,4-dimethylbenzene]",10
2,Oc1ccccc1I [2-iodophenol],14
3,CCOP(=O)(OCC)OCC [triethylphosphate],140
4,Nc1ccc([N+](=O)[O-])cc1 [4-nitrobenzenamine],14000
5,Nc1ccccc1Cl [1-amino-2-chlorobenzene],1.6
6,Cc1ccccc1N [2-methylbenzenamine],4.6
7,N#Cc1cccnc1 [3-cyanopyridine],36
8,N#Cc1ccncc1 [4-cyanopyridine],11
9,Nc1cccc(Cl)c1 [1-amino-3-chlorobenzene],7.5
10,"Cc1cccc(C)c1N [2,6-dimethylbenzenamine]",2.7
11,Cc1cc(O)ccc1Cl [4-chloro-3-methylphenol],39
12,CNc1ccccc1 [(methylamino)-benzene],1.1
13,Nc1ccc(Cl)cc1 [1-amino-4-chlorobenzene],8.6
14,Nc1ccccc1[N+](=O)[O-] [2-nitrobenzenamine],100
15,Oc1ccccc1Cl [2-hydroxychlorobenzene],0.88
16,Nc1cccc2ccccc12 [1-naphthylamine],88
17,O=[N+]([O-])c1ccccc1O [2-nitrophenol],0.92
18,Nc1ccc2ccccc2c1 [2-naphthylamine],120
19,Nc1cccc([N+](=O)[O-])c1 [3-nitrobenzenamine],1200
